Here are results for one molecule from ChEMBL document CHEMBL4251544, “Identification of imidazo[1,2-b]pyridazine TYK2 pseudokinase ligands as potent and selective allosteric inhibitors of TYK2 signalling” (Medchemcomm, 2017).

What all share (assay type): ADME, organism-based
Series [1] in a line: AUClast in Balb/c mouse at 3 mg/kg, iv. On the set-up: dose 3 mg/kg, route intravenous, time 0 - last. The settings on record: in vivo.
Series [2] in a line: AUClast in Balb/c mouse at 25 mg/kg, po. Also noted: dose 25 mg/kg, route oral, time 0 - last. The settings on record: in vivo.
Series [3] in a line: Oral bioavailability in Balb/c mouse at 25 mg/kg. The following applies: in vivo.
The nature of series [4]: Cmax in Balb/c mouse at 25 mg/kg, po. Also noted: dose 25 mg/kg, route oral. The settings on record: in vivo.
The nature of series [5]: Volume of distribution at steady state in Balb/c mouse at 3 mg/kg, iv. The settings on record: in vivo, read-out: Vdss.

In the case of `CNc1cc(Nc2cc(F)cc(F)c2OC)nn2c(C(=O)NC[C@](C)(O)CO)cnc12`, the results for the AUC(0-t) in series [1] and in series [2] were 2.3 µM·h and 5.1 µM·h, respectively. In addition, in series [3], the bioavailability turned out to be 27%. This molecule returned a Cmax in series [4] of 2800 nM. Also, the Vd in series [5] was determined as 6.3 L/kg.

As a reminder, the AUC(0-t) is the area under the concentration-time curve up to a stated or last time point. High values mean more exposure, low ones less exposure. The term bioavailability denotes the share of a dose that reaches the circulation, judged against a reference dose that is usually intravenous. A low value points to little systemic uptake. By Cmax is commonly meant the peak of the concentration-time curve.
